Results: article PMC11040352, “CD38‐Specific Gallium‐68 Labeled Peptide Radiotracer Enables Pharmacodynamic Monitoring in Multiple Myeloma with PET” (Advanced Science, 2024)

Experiments:
PDX tumors = assay: PET imaging of patient‐derived xenografts (PDXs), incl. before and after ATRA; format: in vivo, NSG mice; conditions: PDX mice, oral ATRA 500 µg per day for 3 d, compared to pre‐treatment
Description: To establish PDX models, immune‐deficient NSG male mice (NOD/Shi‐scid IL‐2rgnull), aged 6–8 weeks, were employed after being irradiated at an absorbed dose of 200 cGy. PCL cells, sourced from two patients and anonymized, were obtained from Dr. Gocke's laboratory. Under sterile conditions, the cells were thawed and treated with DNAse at a concentration of 20 µg mL^−1. After cell counting, 30 000 cells were subjected to flow cytometry analysis to assess CD38 expression. The remaining cells were subcutaneously inoculated at a concentration of 5 × 10^6 cells in 100 µL of a solution comprising 60% Matrigel Basement Matrix (Corning 356230) diluted with HBSS. The animals were included in the experiments once the PDX volumes reached tumor volumes of 100–200 mm^3.
Mice bearing flank tumors and disseminated disease were injected intravenously with [^68Ga]Ga‐AJ206 and PET images were acquired 60 min after injection of the radiotracer. […] PET images were quantified by drawing ROI on tissues using Amide 1.0.6 and reported as %ID/cc.
To assess the pharmacodynamics of ATRA‐induced CD38 expression in vivo, mice bearing PDX tumors (n = 6) were subjected to image using [^68Ga]Ga‐AJ206 to quantify CD38 expression prior to treatment. […] All images were analyzed using AMIDE software with standard ROI analysis techniques.

[1] = tested on: MM cell lines (U266, RPMI8226, MM1S, and MOLP8); assay: ATRA treatment, flow cytometry of CD38 surface expression; format: cell-based, human; conditions: four MM cell lines, ATRA 48 h
Description: To evaluate CD38 surface expression, cells (1 × 10^6) were stained with PE‐labelled anti‐human CD38 monoclonal antibody (clone HB‐7, BioLegend Cat # 356604) in FACS buffer (0.5% FBS with 2 mM EDTA) for 30 min on ice. After washing and resuspending in FACS buffer, data were acquired on a BD Accuri C6 plus flow cytometer and analyzed using FlowJo software. Receptor density measurements were performed using Quantibrite Beads (BD Biosciences, cat #340495), which contain four levels of phycoerythrin (PE) per bead. Gates were drawn on low, medium low, medium high, and high PE binding beads, and the geometric mean from these populations was correlated with the lot‐specific PE molecule/bead on a logarithmic scale. This correlation was used to translate cell population geometric mean to receptor/cell for the respective cell type. To evaluate the pharmacodynamic effects of ATRA therapy on MM cells, U266, RPMI8226, MM1S, and MOLP8 cells were seeded at a concentration of 0.5 million in 500 µL per well in triplicates in a six‐well plate. A 200 × 10^−9 M working solution of all‐trans retinoic acid (ATRA, Sigma‐Aldrich #554720) was prepared by diluting in culture media. Next, 500 µL of the working solution was added to each well, and the cells were incubated for 48 h at 37 °C in a 5% CO2 atmosphere. […]

[2] = tested on: MM cell lines (U266, RPMI8226, MM1S, and MOLP8); assay: ATRA treatment, in vitro uptake of [^68Ga]Ga‐AJ206; format: cell-based, human; conditions: ATRA treated cells compared to control treatment
Description: In vitro binding assays were conducted to determine the binding of [^68Ga]Ga‐AJ206 to U266, RPMI8226, MM1S, and MOLP8 cells. Approximately 1 µCi of [^68Ga]Ga‐AJ206 was incubated with 1 × 10^6 cells in 100 µL of culture media for 60 min at 4 °C. After incubation, cells were washed three times with ice‐cold PBS containing 0.1% tween‐20 and counted on an automated gamma counter (1282 Compugamma CS, Pharmacia/LKB Nuclear, Inc., Gaithersburg, MD). […] All cellular uptake studies were performed in quadruplicate for each cell line and repeated three times.
To evaluate the pharmacodynamic effects of ATRA therapy on MM cells, U266, RPMI8226, MM1S, and MOLP8 cells were seeded at a concentration of 0.5 million in 500 µL per well in triplicates in a six‐well plate. A 200 × 10^−9 M working solution of all‐trans retinoic acid (ATRA, Sigma‐Aldrich #554720) was prepared by diluting in culture media. Next, 500 µL of the working solution was added to each well, and the cells were incubated for 48 h at 37 °C in a 5% CO2 atmosphere. After incubation, cells were transferred to FACS tubes, medium was removed by centrifugation, and the cells were resuspended in FACS buffer for flow cytometry and in vitro binding studies, following the same protocol as previously described.

[3] = target: T1, recombinant human CD38 protein (Homo sapiens, UniProt P28907); assay: Affinity measurement by surface plasmon resonance (SPR), human CD38; format: binding
T1 construct: purchased R&D systems 2404-AC
Description: The affinity of AJ206 for hCD38 and mCD38 recombinant proteins were evaluated by SPR. The experiments were conducted using a Biacore T200 instrument with a CM5 chip at 25 °C. The ligands used were His‐Tagged human CD38 (R&D systems, catalog # 2404‐AC, 43 kDa, 0.5 mg mL^−1 stock concentration) and mouse CD38 proteins (R&D systems, catalog # 4947‐AC, 40 kDa, 1.81 mg mL^−1 stock concentration), which were immobilized onto the CM5 chip. AJ206 (2089.2 Da, 10 × 10^−3 M stock concentration) was used as the analyte, which flowed over the ligand immobilized surface. FC2 was used as the experimental flow cell, while FC1 served as the reference. Anti‐His antibody (1 mg mL^−1 stock concentration) was immobilized on both FC1 and FC2 using standard amine coupling chemistry. The immobilization running buffer used was PBS‐P (20 × 10^−3 M phosphate buffer pH 7.4, 137 × 10^−3 M NaCl, 2.7 × 10^−3 M KCl, 0.05% v/v surfactant P20). Human CD38 was captured onto FC2 at a level of ≈860 RU, with a 1:20 dilution and 25 µg mL^−1 diluted concentration in PBS‐P. Mouse CD38 was captured onto FC4 at a level of 1360 RU, with a 1:50 dilution and 36.2 µg mL^−1 diluted concentration in PBS‐P. The theoretical R max values were calculated based on the captured response values and are presented in Table 2 , assuming a 1:1 interaction mechanism. […]

T1 sequence (P28907 whole entry): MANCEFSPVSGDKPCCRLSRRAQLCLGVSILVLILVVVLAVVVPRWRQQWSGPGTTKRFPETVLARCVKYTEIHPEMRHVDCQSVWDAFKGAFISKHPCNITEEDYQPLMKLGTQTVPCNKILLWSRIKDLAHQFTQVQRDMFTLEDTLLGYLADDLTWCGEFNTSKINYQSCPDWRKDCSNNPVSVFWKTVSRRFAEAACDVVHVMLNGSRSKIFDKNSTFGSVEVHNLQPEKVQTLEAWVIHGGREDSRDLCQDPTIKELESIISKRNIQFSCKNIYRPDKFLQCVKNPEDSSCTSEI

SMILES	change of [^68Ga]Ga‐AJ206 radioactivity uptake in tumors (PET) (PDX tumors)	change of CD38 expression [1]	change of [^68Ga]Ga‐AJ206 radioactivity uptake in treated cells [2]	Kd ([3]; hCD38, read-out: dissociation constant (K D)) [nM]	koff ([3]; recombinant human CD38, mean ± SEM (n = 2), read-out: Koff (1/s) x10^-4) [s⁻¹]
CC1=C(/C=C/C(C)=C/C=C/C(C)=C/C(=O)O)C(C)(C)CCC1 [ATRA, all‐trans retinoic acid]	significant increase	increased CD38 expression	significant increase		
CC[C@H](C)[C@@H]1NC(=O)[C@@H]2CCCN2C(=O)[C@H](Cc2ccccc2)NC(=O)[C@H](CC(=O)O)NC(=O)[C@H](C)NC(=O)[C@@H]2CSCc3cc(cc(c3)CSC[C@H](NC(=O)[C@H](C)NC(=O)CCOCCOCCOCCNC(=O)CN3CCN(CC(=O)O)CCN(CC(=O)O)CC3)C(=O)N[C@@H](C(C)C)C(=O)N3CCC[C@H]3C(=O)N2)CSC[C@@H](C(N)=O)NC(=O)[C@H](Cc2ccc(O)cc2)NC(=O)[C@H](Cc2c[nH]c3ccccc23)NC1=O [AJ206]				19.1 ± 0.99	0.0006 ± 0.000121
